# Results: patent publication US20190225650A1, “PEPTIDOMIMETIC MACROCYCLES AND USE THEREOF IN REGULATING HIF1ALPHA” (AILERON THERAPEUTICS, INC., priority 2013, published 2019)
# Bridge positions count the residues as written; N and C are the ends. Square brackets hold non-standard residues; d marks the D form. Peptide text beside a SMILES is read from it. R8 = C=CCCCCCC[C@@](C)(N)C(=O)O; S5 = C=CCCC[C@](C)(N)C(=O)O; Nle = CCCC[C@H](N)C(=O)O; Abu = CC[C@H](N)C(=O)O
# Experiments:
# [1] = system: HRE-bla ME-180 cells; experiment: Reporter gene assay (HRE-bla ME-180 HIF reporter, GeneBLAzer); assay type: cell-based, human; settings: for EC50: 24 hour normoxia
# Method in brief: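 A FRET β-lactamase readout of HIF transcription was used. After compound treatment in 0.3% DMSO/media under normoxic conditions, 20 μl of 6× LiveBLAzer-FRET B/G (CCF4-AM) substrate was added. Plates sat 3 hr at room temperature in the dark and were read at 409 Ex/460Em and 409Ex/530Em on a Synergy 2. Inhibition was compared against DMSO vehicle controls, with chetomin as positive control.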
# [2] = system: HRE-bla ME-180 cells; experiment: Cell proliferation assay (viability, MTT, 1% FBS); assay type: cell-based, human
# Method in brief: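 Viable cell number was measured with the CellTiter 96 (MTT) kit after compounds were applied for a 16 h normoxic (21% O2) pretreatment, followed by further normoxic or hypoxic (1% O2) culture. Cells: 2×10^4 ME-180 per well, Opti-MEM + 1% FBS, 0.5% DMSO vehicle.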
# [3] = molecular target: T1, flag-tagged HIF1α (AA 786-826) / His6-tagged p300 (AA 323-423) complex (Homo sapiens, UniProt Q09472); experiment: HIF1α p300 displacement assay (TR FRET, +CHAPS); assay type: binding; settings: read-out: IC50 (nM) (HIF1α_p300 Displacement + CHAPS)
# T1 construct: His6-tagged p300 (AA 323-423); made in house; host or cells: E. coli (pETDuet vector)
# Method in brief: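 In this TR-FRET displacement format, peptides compete HIF1α C-terminal transactivation domain off p300-CH. They were preincubated 1 h at room temperature with 300 nM complex in HEPES pH 7.4/NaCl buffer with 7.5 mM CHAPS and 1 mM DTT. Anti-His-D2 (4 nM) and anti-Flag-K (0.5 μM) followed for 2 h, and a one-site fit of the fluorescence ratio gave IC50.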
# T1 sequence (Q09472 323-423, one chain of several): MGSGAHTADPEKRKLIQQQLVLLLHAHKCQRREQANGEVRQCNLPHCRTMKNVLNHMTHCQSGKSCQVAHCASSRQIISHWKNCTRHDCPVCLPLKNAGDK
SMILES,18 h Avg % max inhibition at top conc (HIF Rptr-24 hrs normoxia) (μM) [1],EC50 [1] [µM],Viability 1% FBS AVG (MTT V3-24 hr Normoxia) (μM) [2],IC50 [3] [nM]
CC[C@H](C)[C@H](NC(=O)[C@H](CC(N)=O)NC(=O)[C@@H](NC(=O)[C@H](CCC(N)=O)NC(=O)[C@H](CC(=O)O)NC(=O)[C@H](CC(C)C)NC(=O)[C@H](C)NC(=O)[C@H](CCCNC(=N)N)NC(=O)[C@H](CC(C)C)NC(=O)[C@H](CC(C)C)NC(=O)[C@H](CCC(=O)O)NC(=O)[C@H](CCC(=O)O)NC(=O)CNC(=O)[C@H](CCC(N)=O)NC(=O)[C@H](CC(C)C)NC(=O)[C@H](CC(C)C)NC(C)=O)C(C)C)C(=O)N[C@@H](CC(=O)O)C(=O)N[C@@H](CCC(=O)O)C(=O)N[C@]1(C)CCCCCCC=CCCC[C@@](C)(C(=O)N[C@@H](CCC(=O)O)C(=O)N[C@@H](CCSC)C(N)=O)NC(=O)[C@H](C(C)C)NC(=O)[C@H](CC(C)C)NC(=O)[C@H](CO)NC(=O)[C@H](CCSC)NC(=O)[C@H](CC(C)C)NC(=O)[C@H](C(C)C)NC1=O [SP-320] (Ac-LLQGEELLRALDQVNIDE[R8]VLMSLV[S5]EM-NH2; staple 19-26),+ (<10: +),> 30,++++ (≥30: ++++),200 to 400
"CC[C@@H]1NC(=O)[C@H](CC(=O)O)NC(=O)[C@H](Cc2ccc(O)cc2)NC(=O)[C@@](C)(NC(=O)[C@@H](NC(=O)[C@H](CC(C)C)NC(=O)[C@H](CCC(N)=O)NC(=O)[C@@H]2CCCN2C(=O)[C@H](CC(C)C)NC(=O)[C@H](CCC(=O)O)NC(=O)[C@H](CCCCN)NC(=O)[C@@H](NC(=O)[C@H](CCCNC(=N)N)NC(=O)[C@H](CC(=O)O)NC(=O)[C@H](CC(C)C)NC(=O)CNC(=O)[C@H](CCSC)NC(=O)[C@]2(C)CCCC=CCCC[C@](C)(NC(=O)[C@H](CCSC)NC(=O)[C@H](CC(C)C)NC(=O)[C@@H](NC(=O)[C@H](CCC(=O)O)NC(=O)[C@H](CCC(=O)O)NC(=O)[C@H](CC(=O)O)NC(=O)[C@@H](NC(=O)[C@H](Cc3ccccc3)NC(C)=O)[C@@H](C)CC)C(C)C)C(=O)N[C@@H](CC(C)C)C(=O)N[C@@H](C(C)C)C(=O)N[C@@H]([C@@H](C)CC)C(=O)N2)[C@@H](C)CC)[C@@H](C)O)CCCC=CCCC[C@@](C)(C(=O)N[C@H](C(=O)N[C@@H](CC(N)=O)C(=O)N[C@@H](C)C(N)=O)C(C)C)NC1=O [SP-321] (Ac-FIDEEVLM[S5]LVI[S5]MGLDRIKELPQLT[S5]YD[Abu][S5]VNA-NH2; staple 9-13, 27-31)",+++ (≤25 but <50: +++),15 to 30,++++ (≥30: ++++),200 to 400
"CC[C@@H]1NC(=O)[C@H](CC(=O)O)NC(=O)[C@H](Cc2ccc(O)cc2)NC(=O)[C@@](C)(NC(=O)[C@@H](NC(=O)[C@H](CC(C)C)NC(=O)[C@H](CCC(N)=O)NC(=O)[C@@H]2CCCN2C(=O)[C@H](CC(C)C)NC(=O)[C@H](CCC(=O)O)NC(=O)[C@H](CCCCN)NC(=O)[C@@H](NC(=O)[C@H](CCCNC(=N)N)NC(=O)[C@H](CC(=O)O)NC(=O)[C@H](CC(C)C)NC(=O)CNC(=O)[C@H](CCSC)NC(=O)[C@H](CCC(=O)O)NC(=O)[C@]2(C)CCCC=CCCCCCC[C@@](C)(NC(=O)[C@H](CCC(=O)O)NC(=O)[C@H](CC(=O)O)NC(=O)[C@@H](NC(=O)[C@H](Cc3ccccc3)NC(C)=O)[C@@H](C)CC)C(=O)N[C@@H](C(C)C)C(=O)N[C@@H](CC(C)C)C(=O)N[C@@H](CCSC)C(=O)N[C@@H](CO)C(=O)N[C@@H](CC(C)C)C(=O)N[C@@H](C(C)C)C(=O)N2)[C@@H](C)CC)[C@@H](C)O)CCCC=CCCC[C@@](C)(C(=O)N[C@H](C(=O)N[C@@H](CC(N)=O)C(=O)N[C@@H](C)C(N)=O)C(C)C)NC1=O [SP-323] (Ac-FIDE[R8]VLMSLV[S5]EMGLDRIKELPQLT[S5]YD[Abu][S5]VNA-NH2; staple 5-12, 27-31)",+ (<10: +),> 30,++++ (≥30: ++++),200 to 400
"CCCC[C@H](NC(=O)[C@H](CCC(=O)O)NC(=O)[C@@H](NC(=O)[C@@H](NC(=O)[C@H](CC(C)C)NC(=O)[C@]1(C)CCCC=CCCC[C@](C)(NC(=O)[C@H](CCC(=O)O)NC(=O)[C@H](CC(=O)O)NC(=O)[C@@H](NC(=O)[C@H](CC(N)=O)NC(=O)[C@@H](NC(=O)[C@]2(C)CCCC=CCCCCCC[C@@](C)(NC(=O)[C@H](CCC(=O)O)NC(=O)CNC(=O)[C@H](CCC(N)=O)NC(=O)[C@H](CC(C)C)NC(=O)[C@H](CC(C)C)NC(C)=O)C(=O)N[C@@H](CC(C)C)C(=O)N[C@@H](CC(C)C)C(=O)N[C@@H](CCCNC(=N)N)C(=O)N[C@@H](C)C(=O)N[C@@H](CC(C)C)C(=O)N[C@@H](CC(=O)O)C(=O)N2)C(C)C)[C@@H](C)CC)C(=O)N[C@@H](C(C)C)C(=O)N[C@@H](CC(C)C)C(=O)N[C@@H](CCCC)C(=O)N1)C(C)C)[C@@H](C)CC)C(=O)NCC(N)=O [SP-328] (Ac-LLQGE[R8]LLRALD[S5]VNIDE[S5]VL[Nle][S5]LVIE[Nle]G-NH2; staple 6-13, 19-23)",+ (<10: +),> 30,++++ (≥30: ++++),≤ 200
"CCCC[C@@H]1NC(=O)[C@H](CC(C)C)NC(=O)[C@](C)(NC(=O)[C@H](CCC(=O)O)NC(=O)[C@H](CCC(=O)O)NC(=O)[C@H](CC(=O)O)NC(=O)[C@@H](NC(=O)[C@H](CC(N)=O)NC(=O)[C@@H](NC(=O)[C@H](CCC(N)=O)NC(=O)[C@H](CC(=O)O)NC(=O)[C@H](CC(C)C)NC(=O)[C@]2(C)CCCC=CCCC[C@](C)(NC(=O)[C@H](CCC(=O)O)NC(=O)CNC(=O)[C@H](CCC(N)=O)NC(=O)[C@H](CC(C)C)NC(=O)[C@H](CC(C)C)NC(C)=O)C(=O)N[C@@H](CC(C)C)C(=O)N[C@@H](CC(C)C)C(=O)N[C@@H](CCCNC(=N)N)C(=O)N2)C(C)C)[C@@H](C)CC)CCCCCCC=CCCC[C@@](C)(C(=O)N[C@@H](CCCC)C(=O)NCC(N)=O)NC(=O)[C@H]([C@@H](C)CC)NC(=O)[C@H](C(C)C)NC(=O)[C@H](CC(C)C)NC(=O)[C@H](CO)NC1=O [SP-330] (Ac-LLQGE[S5]LLR[S5]LDQVNIDEE[R8]L[Nle]SLVI[S5][Nle]G-NH2; staple 6-10, 20-27)",+ (<10: +),> 30,++++ (≥30: ++++),> 700
"CCCC[C@@H]1NC(=O)[C@H](CC(C)C)NC(=O)[C@](C)(NC(=O)[C@H](CCC(=O)O)NC(=O)[C@H](CCC(=O)O)NC(=O)[C@H](CC(=O)O)NC(=O)[C@@H](NC(=O)[C@H](CC(N)=O)NC(=O)[C@@H](NC(=O)[C@]2(C)CCCC=CCCCCCC[C@@](C)(NC(=O)[C@H](CCC(=O)O)NC(=O)CNC(=O)[C@H](CCC(N)=O)NC(=O)[C@H](CC(C)C)NC(=O)[C@H](CC(C)C)NC(C)=O)C(=O)N[C@@H](CC(C)C)C(=O)N[C@@H](CC(C)C)C(=O)N[C@@H](CCCNC(=N)N)C(=O)N[C@@H](C)C(=O)N[C@@H](CC(C)C)C(=O)N[C@@H](CC(=O)O)C(=O)N2)C(C)C)[C@@H](C)CC)CCCCCCC=CCCC[C@@](C)(C(=O)N[C@@H](CCCC)C(=O)NCC(N)=O)NC(=O)[C@H]([C@@H](C)CC)NC(=O)[C@H](C(C)C)NC(=O)[C@H](CC(C)C)NC(=O)[C@H](CO)NC1=O [SP-332] (Ac-LLQGE[R8]LLRALD[S5]VNIDEE[R8]L[Nle]SLVI[S5][Nle]G-NH2; staple 6-13, 20-27)",+ (<10: +),> 30,++++ (≥30: ++++),≤ 200
CCCC[C@H](NC(=O)[C@H](CCC(=O)O)NC(=O)[C@@H](NC(=O)[C@@H](NC(=O)[C@H](CC(C)C)NC(=O)[C@]1(C)CCCC=CCCC[C@](C)(NC(=O)[C@H](CCC(=O)O)NC(=O)[C@H](CC(=O)O)NC(=O)[C@@H](NC(=O)[C@H](CC(N)=O)NC(=O)[C@@H](NC(=O)[C@H](CCC(N)=O)NC(=O)[C@H](CC(=O)O)NC(=O)[C@H](CC(C)C)NC(=O)[C@H](C)NC(=O)[C@H](CCCNC(=N)N)NC(=O)[C@H](CC(C)C)NC(=O)[C@H](CC(C)C)NC(=O)[C@H](CCC(=O)O)NC(=O)[C@H](CCC(=O)O)NC(=O)CNC(=O)[C@H](CCC(N)=O)NC(=O)[C@H](CC(C)C)NC(=O)[C@H](CC(C)C)NC(C)=O)C(C)C)[C@@H](C)CC)C(=O)N[C@@H](C(C)C)C(=O)N[C@@H](CC(C)C)C(=O)N[C@@H](CCCC)C(=O)N1)C(C)C)[C@@H](C)CC)C(N)=O [SP-334] (Ac-LLQGEELLRALDQVNIDE[S5]VL[Nle][S5]LVIE[Nle]-NH2; staple 19-23),+ (<10: +),> 30,++++ (≥30: ++++),200 to 400
